In the NIST ThermoML archive (doi:10.1021/je050050p):

Test: xn = mol fraction of the nth substance listed
Details: Liquid, Vibrating tube method

CN(C)C=O [dimethylformamide] + O=C=O
Details	mass density [kg/m3]
323.1 K, 12012 kPa, x2 = 0.4502	948.99
323.1 K, 12998 kPa, x2 = 0.4068	949.23
323.1 K, 13022 kPa, x2 = 0.4502	950.22
323.1 K, 13979 kPa, x2 = 0.4068	950.27
323.1 K, 14010 kPa, x2 = 0.4502	951.35
323.1 K, 15004 kPa, x2 = 0.4068	951.37
323.1 K, 15007 kPa, x2 = 0.4502	952.52
323.1 K, 16001 kPa, x2 = 0.4068	952.41
323.1 K, 16010 kPa, x2 = 0.4502	953.67
323.1 K, 16989 kPa, x2 = 0.4068	953.45
323.1 K, 17008 kPa, x2 = 0.4502	954.76
323.1 K, 18013 kPa, x2 = 0.4502	955.9
323.1 K, 18017 kPa, x2 = 0.4068	954.51
323.1 K, 18998 kPa, x2 = 0.4068	955.51
323.1 K, 19001 kPa, x2 = 0.4502	956.99
323.1 K, 19996 kPa, x2 = 0.4502	958.07
323.1 K, 20005 kPa, x2 = 0.4068	956.52
323.1 K, 20986 kPa, x2 = 0.4068	957.5
323.1 K, 21010 kPa, x2 = 0.4502	959.2
323.1 K, 22004 kPa, x2 = 0.4502	960.27
323.1 K, 22021 kPa, x2 = 0.4068	958.56
323.1 K, 22997 kPa, x2 = 0.4502	961.32
323.1 K, 22998 kPa, x2 = 0.4068	959.49
323.1 K, 23987 kPa, x2 = 0.4068	960.47
323.1 K, 23995 kPa, x2 = 0.4502	962.39
323.1 K, 25019 kPa, x2 = 0.4502	963.43
323.1 K, 25057 kPa, x2 = 0.4068	961.5
323.15 K, 5022 kPa, x2 = 0.2876	937.32
323.15 K, 6019 kPa, x2 = 0.2876	938.29
323.15 K, 7007 kPa, x2 = 0.2876	939.23
323.15 K, 8008 kPa, x2 = 0.2876	940.16
323.15 K, 9023 kPa, x2 = 0.2876	941.14
323.15 K, 10001 kPa, x2 = 0.2876	942.04
323.15 K, 11006 kPa, x2 = 0.2876	942.98
323.15 K, 12003 kPa, x2 = 0.2876	943.9
323.15 K, 13004 kPa, x2 = 0.2876	944.81
323.15 K, 14005 kPa, x2 = 0.2876	945.73
323.15 K, 14999 kPa, x2 = 0.2876	946.61
323.15 K, 15994 kPa, x2 = 0.2876	947.48
323.15 K, 17022 kPa, x2 = 0.2876	948.41
323.15 K, 17996 kPa, x2 = 0.2876	949.25
323.15 K, 19004 kPa, x2 = 0.2876	950.13
323.15 K, 20021 kPa, x2 = 0.2876	950.99
323.15 K, 21018 kPa, x2 = 0.2876	951.84
323.15 K, 22030 kPa, x2 = 0.2876	952.68
323.15 K, 23007 kPa, x2 = 0.2876	953.51
323.15 K, 24019 kPa, x2 = 0.2876	954.35
323.15 K, 25012 kPa, x2 = 0.2876	955.16
332.96 K, 10005 kPa, x2 = 0.6235	907.82
332.96 K, 10991 kPa, x2 = 0.6235	910.93
332.96 K, 12056 kPa, x2 = 0.6235	913.98
332.96 K, 13000 kPa, x2 = 0.6235	916.59
332.96 K, 14042 kPa, x2 = 0.6235	919.37
332.96 K, 15010 kPa, x2 = 0.6235	921.91
332.96 K, 15997 kPa, x2 = 0.6235	924.4
332.96 K, 17030 kPa, x2 = 0.6235	926.91
332.96 K, 18038 kPa, x2 = 0.6235	929.31
332.96 K, 19028 kPa, x2 = 0.6235	931.63
332.96 K, 20027 kPa, x2 = 0.6235	933.85
332.96 K, 21009 kPa, x2 = 0.6235	936.05
332.96 K, 22009 kPa, x2 = 0.6235	938.17
332.96 K, 23042 kPa, x2 = 0.6235	940.35
332.96 K, 24041 kPa, x2 = 0.6235	942.44
332.96 K, 25008 kPa, x2 = 0.6235	944.38
332.97 K, 13046 kPa, x2 = 0.8091	858.28
332.97 K, 14016 kPa, x2 = 0.8091	863.75
332.97 K, 15002 kPa, x2 = 0.8091	869.06
332.97 K, 16027 kPa, x2 = 0.8091	874.28
332.97 K, 17017 kPa, x2 = 0.8091	879.06
332.97 K, 18042 kPa, x2 = 0.8091	883.74
332.97 K, 19003 kPa, x2 = 0.8091	887.97
332.97 K, 20021 kPa, x2 = 0.8091	892.23
332.97 K, 21029 kPa, x2 = 0.8091	896.31
332.97 K, 22019 kPa, x2 = 0.8091	900.16
332.97 K, 23004 kPa, x2 = 0.8091	903.83
332.97 K, 24041 kPa, x2 = 0.8091	907.6
332.97 K, 24998 kPa, x2 = 0.8091	910.97
332.98 K, 8015 kPa, x2 = 0.4268	929.54
332.98 K, 9023 kPa, x2 = 0.4268	930.86
332.98 K, 9996 kPa, x2 = 0.4268	932.09
332.98 K, 11004 kPa, x2 = 0.4268	933.37
332.98 K, 12004 kPa, x2 = 0.4268	934.65
332.98 K, 13005 kPa, x2 = 0.4268	935.88
332.98 K, 13019 kPa, x2 = 0.9311	744.38
